Measurements: patent publication US20260250318A1, “COMPOSITIONS AND METHODS FOR CROSSING THE BLOOD BRAIN BARRIER” (VOYAGER THERAPEUTICS, INC., priority 2022, published 2026)

What was measured:
brain = assay: Maturation of TTM-001 capsid, NGS enrichment in brain of CD-1 Outbred mice; assay type: in vivo; conditions: NGS fold-enrichment of TTM-001 matured AAV capsid variants in the brain of CD-1 Outbred mice; intravenous 1.0×10^12 VG/dose; 14 days in life; RNA; relative to non-matured TTM-001 control
From the text: This Example describes maturation of the TTM-001 (SEQ ID NO: 981 (amino acid) and 983 (DNA), comprising SEQ ID NO: 941) and TTM-002 (SEQ ID NO: 982 (amino acid) and 984 (DNA), comprising SEQ ID NO: 2) capsid variants to further enhance their transduction and biodistribution in the central nervous system and evolve the AAV capsid variants to provide further cross-species compatibility. Two approaches were used to mature the TTM-001 and TTM-002 capsid sequences in order to randomize and mutate within and around the peptide insert comprised within loop IV of the capsid variant. […] In the first maturation approach, sets of three contiguous amino acids were randomized across the mutagenesis region in the TTM-001 and TTM-002 sequences, which spanned from position 450 to position 466, numbered according to SEQ ID NO: 981 and 982. In the second maturation approach, mutagenic primers were used to introduce point mutations at a low frequency, scattered across the mutagenesis region in the TTM-001 and TTM-002 sequences ranging from position 449 to position 466, numbered according to SEQ ID NO: 981 and 982. AAV capsid variants arising from each maturation approach for TTM-001 were pooled together and AAV capsid variants arising from each maturation approach for TTM-002 were also pooled together, for subsequent testing and characterization in mice.
The library of pooled matured AAV capsid variants generated from TTM-001 or library of pooled matured AAV capsid variants generated from the TTM-002 matured AAV capsid variant each were intravenously injected into the tail vein of three female CD-1 Outbred mice (Charles River) at a dose of 1.0×10^12 VG/dose. After 14-days in life, the brains of the mice were isolated and RNA was extracted. Following RNA recovery and RT-PCR amplification, a systematic NGS enrichment analysis was performed to calculate the fold enrichment ratio relative to the corresponding TTM-001 or TTM-002 control, and the peptides comprised within the variants were identified. The data for the TTM-001 matured capsid variants is provided in Table 13 and the data for the TTM-002 matured capsid variants is provided in Table 14.

[1] = tested on: brains, heart, liver, muscle, and DRG of the NHPs; assay: Maturation of TTM-001 and TTM-002 capsids, NGS enrichment in NHP tissues; assay type: in vivo
From the text: This Example describes maturation of the AAV9 capsid variants, TTM-001 (SEQ ID NO: 981 (amino acid) and 983 (DNA), comprising SEQ ID NO: 941 (encoded by SEQ ID NO: 942)) and TTM-002 (SEQ ID NO: 982 (amino acid) and 984 (DNA), comprising SEQ ID NO: […] (encoded by SEQ ID NO: 944)) in NHPs to further enhance their transduction and biodistribution in the central nervous system as well as other tissues, and evolve the AAV capsid variants to provide further cross-species compatibility. Two approaches were used to mature the TTM-001 and TTM-002 capsid sequences in order to randomize and mutate within and around the peptide insert comprised within loop IV of the capsid variant. […] In the first maturation approach, sets of three contiguous amino acids were randomized across the mutagenesis region in the TTM-001 and TTM-002 sequences, which spanned from position 450 to position 466, numbered according to SEQ ID NO: 981 and 982. In the second maturation approach, mutagenic primers were used to introduce point mutations at a low frequency, scattered across the mutagenesis region in the TTM-001 and TTM-002 sequences ranging from position 449 to position 466, numbered according to SEQ ID NO: 981 and 982. AAV capsid variants arising from each maturation approach for TTM-001 and TTM-002 were pooled together, for subsequent testing and characterization in NHPs.
The library of pooled matured AAV capsid variants generated using the first maturation approach and the second maturation approach for the TTM-001 and TTM-002 AAV capsid variants were injected into two NHPs. […] Following RNA recovery and RT-PCR amplification, a systematic NGS enrichment analysis was performed to calculate the fold enrichment ratio relative to an AAV9 control, and the peptides comprised within the variants were identified.
Following the RNA recovery and NGS analysis from the second maturation approach, approximately 680,000 capsid variants were identified. The 680,000 matured capsid variants were then filtered based on samples with a raw virus count greater than 10 and a coefficient of variance (CV) of less than 1, which was calculated for each peptide across the brain samples taken from the two NHPs. […] Using this filtering criteria, this led to approximately 64,000 matured capsid variants.

[2] = NHP DRG, NGS, relative to AAV9 control
[3] = NHP brain, NGS, relative to AAV9 control
[4] = NHP heart, NGS, relative to AAV9 control
[5] = NHP liver DNA, NGS, relative to AAV9 control
[6] = NHP liver RNA, NGS, TTM-001 and TTM-002 matured AAV capsid variants, relative to AAV9 control
[7] = NHP muscle, NGS, relative to AAV9 control

Sequence | Fold enrichment over TTM-001 (brain) [fold] | also measured
KAFNGSGSPHSKAPNQQT | 2.088 | –
KDLRGSGSPHSKAQNQQT | 2.238 | –
KDSLGSGSPHSKAQNQQT | 2.175 | –
KEIKGSGSPHSKAQNQQT | 2.140 | –
KELVGSGSPHSKAQNQQT | 2.019 | –
KEVAGSGSPHSKAQNQQT | 2.250 | –
KEVGGSGSPHSKAQNQQT | 2.358 | –
KEVMGSGSPHSKAQNQQT | 2.047 | –
KGHEGSGSPHSKAQNQQT | 2.151 | –
KGINGSGSPHGKAQNQQT | 2.084 | –
KGLSGSGSPHSKAQNQQT | 4.056 | –
KGLVGSGSPHSKAQNQQT | 2.412 | –
KHRSGSGSPHSKAQNQQT | 2.456 | –
KPLDGSGSPHSKAQNQQT | 2.488 | –
KPLPGSGSPHSKAQNQQT | 2.495 | –
KPLRGSGSPHSKAQNQQT | 2.486 | –
KPPTGSGSPHSKAQNQQT | 2.270 | –
KPRLGSGSPHSKAQNQQT | 2.406 | –
KQPLGSGSPHSKAQNQQT | 2.024 | –
KRLFGSGSPHSKAQNQQT | 2.330 | –
KRSKGSGSPHSKAQNQQT | 2.030 | –
KSINGSGSPHSKAHDQQT | 3.592 | –
KSMNGSGSPHSRAQNQQT | 5.145 | –

Sequence | Fold enrichment over TTM-001 (brain) [fold] | also measured
KTIMRVGSPHSKAQNQQT | 4.875 | –
KTINASGSPHSKAQGQQT | 2.108 | –
KTINFLRSPHSKAQNQQT | 3.331 | –
KTINGALSPHRKAQNQQT | 2.203 | –
KTINGCSSPHRKAQNQQT | 2.291 | –
KTINGFLSPHRKAQNQQT | 2.654 | –
KTINGFRSPHLKAQNQQT | 2.063 | –
KTINGFRSPHSKAQNQQT | 2.333 | –
KTINGFSSPHRKAQNQQT | 2.276 | –
KTINGHLSPHRKAQNQQT | 2.851 | –
KTINGHRSPHLKAQNQQT | 2.320 | –
KTINGHSSPHRKAQNQQT | 2.639 | –
KTINGIASPHRKAQNQQT | 2.099 | –
KTINGILSPHRKAQNQQT | 2.475 | –
KTINGIRSPHTKAQNQQT | 2.793 | –
KTINGKLSPHMKAQNQQT | 2.449 | –
KTINGKRSPHSKAQNQQT | 3.611 | –
KTINGKTSPHGKAQNQQT | 2.717 | –
KTINGLASPHRKAQNQQT | 2.737 | –
KTINGLFSPHRKAQNQQT | 2.331 | –
KTINGLLSPHRKAQNQQT | 3.026 | –
KTINGLLSPHWKAQNQQT | 4.173 | –
KTINGLPSPHRKAQNQQT | 2.719 | –

Sequence | Fold enrichment over TTM-001 (brain) [fold] | also measured
KTINGLRSPHRKAQNQQT | 3.676 | –
KTINGLRSPHSKAQNQQT | 2.238 | –
KTINGLTSPHRKAQNQQT | 2.663 | –
KTINGLVSPHCKAQNQQT | 2.605 | –
KTINGMCSPHSKAQNQQT | 2.006 | –
KTINGMKSPHSKAQNQQT | 2.413 | –
KTINGMLSPHRKAQNQQT | 2.646 | –
KTINGMRSPHGKAQNQQT | 2.527 | –
KTINGMRSPHVKAQNQQT | 2.937 | –
KTINGMSSPHRKAQNQQT | 2.352 | –
KTINGNLSPHRKAQNQQT | 2.250 | –
KTINGNVSPHRKAQNQQT | 2.043 | –
KTINGPLSPHCKAQNQQT | 2.194 | –
KTINGPLSPHRKAQNQQT | 2.028 | –
KTINGQRSPHSKAQNQQT | 2.590 | –
KTINGQRSPHVKAQNQQT | 2.596 | –
KTINGRASPHVKAQNQQT | 2.272 | –
KWLTGSGSPHSKAQNQQT (peptide inserted in AAV capsid) | – | Fold Enrichment relative to AAV9, DRG (NHP) [1, 2]: 0.000 fold; Fold Enrichment relative to AAV9, Brain (NHP) [1, 3]: 0.364 fold; Fold Enrichment relative to AAV9, Heart (NHP) [1, 4]: 0.000 fold; Fold Enrichment relative to AAV9, Liver DNA (NHP) [1, 5]: 2.388 fold; Fold Enrichment relative to AAV9, Liver RNA (NHP) [1, 6]: 26.975 fold; Fold Enrichment relative to AAV9, Muscle (NHP) [1, 7]: 2578.486 fold
KYIVGSGSPHSKAQNQQT (peptide inserted in AAV capsid) | – | Fold Enrichment relative to AAV9, DRG (NHP) [1, 2]: 0.000 fold; Fold Enrichment relative to AAV9, Brain (NHP) [1, 3]: 0.000 fold; Fold Enrichment relative to AAV9, Heart (NHP) [1, 4]: 0.000 fold; Fold Enrichment relative to AAV9, Liver DNA (NHP) [1, 5]: 4.480 fold; Fold Enrichment relative to AAV9, Liver RNA (NHP) [1, 6]: 94.721 fold; Fold Enrichment relative to AAV9, Muscle (NHP) [1, 7]: 0.000 fold
KYSAGSGSPHSKAQNQQT (peptide inserted in AAV capsid) | – | Fold Enrichment relative to AAV9, DRG (NHP) [1, 2]: 0.000 fold; Fold Enrichment relative to AAV9, Brain (NHP) [1, 3]: 0.000 fold; Fold Enrichment relative to AAV9, Heart (NHP) [1, 4]: 0.000 fold; Fold Enrichment relative to AAV9, Liver DNA (NHP) [1, 5]: 1.824 fold; Fold Enrichment relative to AAV9, Liver RNA (NHP) [1, 6]: 41.310 fold; Fold Enrichment relative to AAV9, Muscle (NHP) [1, 7]: 0.000 fold
KYSMGSGSPHSKAQNQQT (peptide inserted in AAV capsid) | – | Fold Enrichment relative to AAV9, DRG (NHP) ([1]; NGS fold-enrichment, DRG, NHP, relative to AAV9): 0.000 fold; Fold Enrichment relative to AAV9, Brain (NHP) ([1]; NGS fold-enrichment, brain, NHP, relative to AAV9): 0.000 fold; Fold Enrichment relative to AAV9, Heart (NHP) ([1]; NGS fold-enrichment, heart, NHP, relative to AAV9): 0.000 fold; Fold Enrichment relative to AAV9, Liver DNA (NHP) ([1]; NGS fold-enrichment, liver DNA, NHP, relative to AAV9): 1.587 fold; Fold Enrichment relative to AAV9, Liver RNA (NHP) ([1]; NGS fold-enrichment, liver RNA, NHP, relative to AAV9): 10.478 fold; Fold Enrichment relative to AAV9, Muscle (NHP) ([1]; NGS fold-enrichment, muscle, NHP, relative to AAV9): 0.000 fold
KYVFGSGSPHSKAQNQQT (peptide inserted in AAV capsid) | – | Fold Enrichment relative to AAV9, DRG (NHP) [1, 2]: 0.000 fold; Fold Enrichment relative to AAV9, Brain (NHP) [1, 3]: 0.000 fold; Fold Enrichment relative to AAV9, Heart (NHP) [1, 4]: 0.000 fold; Fold Enrichment relative to AAV9, Liver DNA (NHP) [1, 5]: 2.346 fold; Fold Enrichment relative to AAV9, Liver RNA (NHP) [1, 6]: 22.232 fold; Fold Enrichment relative to AAV9, Muscle (NHP) [1, 7]: 0.000 fold
KYYTGSGSPHSKAQNQQT (peptide inserted in AAV capsid) | – | Fold Enrichment relative to AAV9, DRG (NHP) [1, 2]: 0.000 fold; Fold Enrichment relative to AAV9, Brain (NHP) [1, 3]: 0.000 fold; Fold Enrichment relative to AAV9, Heart (NHP) [1, 4]: 0.000 fold; Fold Enrichment relative to AAV9, Liver DNA (NHP) [1, 5]: 1.199 fold; Fold Enrichment relative to AAV9, Liver RNA (NHP) [1, 6]: 38.777 fold; Fold Enrichment relative to AAV9, Muscle (NHP) [1, 7]: 0.000 fold
